From the supplement of paper PMC10307832

What was measured:
Test in all cases: relative viability (nuclei count vs DMSO), 5 days (fraction); higher = more cells survive
Ruxolitinib + Alpelisib = compound: N#CC[C@H](C1CCCC1)n1cc(-c2ncnc3[nH]ccc23)cn1 [Ruxolitinib] + Cc1nc(NC(=O)N2CCC[C@H]2C(N)=O)sc1-c1ccnc(C(C)(C)C(F)(F)F)c1 [Alpelisib] (partner 2 µM)
In short: (§1)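 Five library-drug doses in √10 steps were combined with a fixed anchor-drug dose, or a single drug was given alone, by pin tool to lung cancer cell lines in 1536-well plates the day after seeding. Nuclei were stained and counted after 5 days. Relative viability is the nuclei count in treated wells over that in vehicle wells, taken as the median of duplicate plates.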

Ruxolitinib + Decitabine = compound: N#CC[C@H](C1CCCC1)n1cc(-c2ncnc3[nH]ccc23)cn1 [Ruxolitinib] + Nc1ncn([C@H]2C[C@H](O)[C@@H](CO)O2)c(=O)n1 [Decitabine] (partner 2 µM)
In short: as §1

Vismodegib + Tozasertib = compound: CS(=O)(=O)c1ccc(C(=O)Nc2ccc(Cl)c(-c3ccccn3)c2)c(Cl)c1 [Vismodegib] + Cc1cc(Nc2cc(N3CCN(C)CC3)nc(Sc3ccc(NC(=O)C4CC4)cc3)n2)n[nH]1 [Tozasertib] (partner 0.1 µM)
In short: as §1

[1] = compound: N#CC[C@H](C1CCCC1)n1cc(-c2ncnc3[nH]ccc23)cn1 [Ruxolitinib] + CC(=O)c1c(C)c2cnc(Nc3ccc(N4CCNCC4)cn3)nc2n(C2CCCC2)c1=O [Palbociclib] (partner 0.5 µM)
In short: as §1

Cell Line | relative viability (Ruxolitinib + Alpelisib; first compound 0.253 µM) | relative viability (Ruxolitinib + Alpelisib; first compound 0.8 µM) | relative viability (Ruxolitinib + Alpelisib; first compound 2.53 µM) | relative viability (Ruxolitinib + Alpelisib; first compound 8 µM) | relative viability (Ruxolitinib + Decitabine; first compound 0.08 µM) | relative viability (Ruxolitinib + Decitabine; first compound 0.253 µM) | relative viability (Ruxolitinib + Decitabine; first compound 0.8 µM) | relative viability (Ruxolitinib + Decitabine; first compound 2.53 µM) | relative viability (Ruxolitinib + Decitabine; first compound 8 µM) | relative viability (Vismodegib + Tozasertib; first compound 0.08 µM) | relative viability (Vismodegib + Tozasertib; first compound 0.253 µM) | relative viability (Vismodegib + Tozasertib; first compound 0.8 µM) | relative viability (Vismodegib + Tozasertib; first compound 2.53 µM) | relative viability (Vismodegib + Tozasertib; first compound 8 µM) | relative viability ([1]; first compound 0.08 µM) | relative viability ([1]; first compound 0.253 µM) | relative viability ([1]; first compound 0.8 µM) | relative viability ([1]; first compound 2.53 µM) | relative viability ([1]; first compound 8 µM) | relative viability (Ruxolitinib + Alpelisib; first compound 0.08 µM)
NCI-H650 | 1.33 | 1.23 | 0.964 | 0.667 | 0.364 | 0.38 | 0.28 | 0.342 | 0.332 | 0.725 | 0.778 | 0.705 | 0.743 | 0.718 | 0.325 | 0.339 | 0.347 | 0.317 | 0.321 | –
NCI-H2087 | 0.832 | 1.13 | 0.769 | 0.954 | 0.316 | – | 0.35 | 0.189 | 0.286 | 0.258 | 0.306 | 0.212 | 0.185 | 0.234 | 0.26 | – | 0.271 | 0.18 | 0.239 | 0.951
EBC-1 | 0.889 | 0.997 | 0.876 | 0.777 | – | – | – | – | – | – | – | – | – | – | – | – | – | – | – | 0.833
NCI-H1648 | – | – | – | – | 0.472 | 0.558 | 0.588 | 0.592 | 0.861 | 0.395 | 0.461 | 0.348 | 0.427 | 0.562 | 0.294 | 0.302 | 0.344 | 0.345 | 0.371 | –
NCI-H1623 | – | – | – | – | – | – | – | – | – | 0.403 | 0.42 | 0.422 | 0.418 | 0.411 | – | – | – | – | – | –
NCI-H661 | 0.623 | 0.579 | 0.583 | 0.252 | 0.547 | 0.548 | 0.588 | 0.484 | 0.505 | 0.352 | 0.339 | 0.353 | 0.359 | 0.365 | 0.425 | 0.436 | 0.427 | 0.417 | 0.381 | 0.406
NCI-H596 | 0.567 | 0.559 | 0.531 | 0.547 | 0.903 | 0.96 | 1.14 | 1.04 | 1.08 | 1 | 0.814 | 0.932 | 0.838 | 0.769 | – | – | – | – | – | 0.521
IA-LM | 0.849 | 0.959 | 0.584 | 0.679 | – | – | – | – | – | – | – | – | – | – | – | – | – | – | – | 0.676
LC-2-ad | 0.848 | 0.934 | 0.734 | 0.567 | 0.776 | 0.936 | 0.784 | 0.694 | 0.604 | 0.504 | 0.545 | 0.427 | 0.434 | 0.462 | 0.544 | 0.511 | 0.533 | 0.473 | 0.409 | 0.895
Calu-6 | 1.03 | 1.09 | 0.851 | 0.673 | – | – | – | – | – | – | – | – | – | – | – | – | – | – | – | 1.02
